Results taken from ChEMBL document CHEMBL1201862, “PubChem BioAssay data set” (2004).
Activity calls are given as the source filed them.

Tests used:
[1] = tested on: HeLa; assay: Cytotoxicity counterscreen assay for transcriptional activators of heat shock protein 70 (Hsp70). [Related pubchem assays: 1203, 1252 ]; assay type: functional; conditions: Homo sapiens;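 further: cells exposed to compound for 16 hours before readout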
[2] = inhibitors of intracellular T. cruzi replication, confirmation, NIH3T3 host cells, beta-gal luminescence (AID 2044); assay type: functional, cell-based;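 further: intracellular parasites grown in NIH/3T3 mouse fibroblasts as host cells; luminescent beta-galactosidase reporter signal from transgenic T. cruzi replicating inside host cells; inhibitors lower the luminescence signal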
[3] = cytotoxicity toward NIH3T3 fibroblasts, dose response, counter-screen, cell-based, ATP luminescence, mouse fibroblasts (AID 2010); assay type: functional;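 further: cells exposed to compound for about 90 hours before reading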
[4] = target: T1, Sphingosine 1-phosphate receptor 4 (Homo sapiens, UniProt O95977); assay: Fluorescence dose response cell-based high throughput screening assay for antagonists of the Sphingosine 1-Phosphate Receptor 4 (S1P4). [Related pubchem assays: 1524 (Confirmation in triplicates.), 1510 (Primary screen.)]; assay type: functional
T1 sequence (O95977 whole entry): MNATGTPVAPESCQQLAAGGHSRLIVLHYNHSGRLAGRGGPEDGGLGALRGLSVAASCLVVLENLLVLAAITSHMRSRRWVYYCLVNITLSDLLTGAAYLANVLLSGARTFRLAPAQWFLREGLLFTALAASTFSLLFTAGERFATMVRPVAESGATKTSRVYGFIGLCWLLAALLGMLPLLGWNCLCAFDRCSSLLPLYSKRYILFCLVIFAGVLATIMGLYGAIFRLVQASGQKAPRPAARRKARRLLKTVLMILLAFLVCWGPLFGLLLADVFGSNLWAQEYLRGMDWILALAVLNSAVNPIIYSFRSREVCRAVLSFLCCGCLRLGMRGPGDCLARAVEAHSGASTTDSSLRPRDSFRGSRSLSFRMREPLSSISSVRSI

[5] = target: Sphingosine 1-phosphate receptor 1 (Homo sapiens, UniProt P21453); assay type: functional;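 further: Tango beta-arrestin reporter U2OS cells stimulated with S1P near its EC80; inhibitor potency meaning antagonism of receptor activation by the natural agonist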
Sequence of Sphingosine 1-phosphate receptor 1 (P21453 whole entry): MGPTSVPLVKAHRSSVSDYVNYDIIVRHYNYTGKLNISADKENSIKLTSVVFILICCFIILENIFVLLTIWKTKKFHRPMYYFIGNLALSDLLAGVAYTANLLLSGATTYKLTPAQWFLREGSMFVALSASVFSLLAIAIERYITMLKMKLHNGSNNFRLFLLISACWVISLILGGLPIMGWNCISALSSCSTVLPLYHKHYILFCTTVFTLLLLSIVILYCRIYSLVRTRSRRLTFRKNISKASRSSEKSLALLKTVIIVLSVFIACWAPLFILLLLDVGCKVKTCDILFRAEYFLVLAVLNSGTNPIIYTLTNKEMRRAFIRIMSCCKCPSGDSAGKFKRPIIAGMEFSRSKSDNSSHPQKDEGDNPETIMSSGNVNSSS

[6] = THP-1 cell cytotoxicity, dose response, cytotoxicity control for non-replicating M. tuberculosis project (AID 489025); assay type: functional
[7] = HepG2 cell cytotoxicity, dose response, cytotoxicity control for non-replicating M. tuberculosis project (AID 489018); assay type: functional; conditions: Mycobacterium tuberculosis
[8] = Vero E6 cell cytotoxicity, dose response, cytotoxicity control for non-replicating M. tuberculosis project, secondary assay (AID 492998); assay type: functional, VeroE6; conditions: Vero C1008
[9] = cells; assay type: functional
[10] = tested on: CHO; assay: cytotoxicity in TLR9-MyD88 CHO cells, dose response, cytotoxicity control for TLR9-MyD88 binding inhibitor project, cell-based, luminescence (AID 588339); assay type: functional, hamster; conditions: Cricetulus griseus;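 further: CHO cells stably coexpressing TLR9 and MyD88 fusions from primary screen; compound exposure lasted 48 hours before viability readout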
[11] = target: T2, Replicative DNA helicase DnaB (Mycobacterium tuberculosis, UniProt P9WMR3); assay: DnaB intein splicing inhibitors, dose response, biochemical, cell-free fluorescence (AID 449749); assay type: functional
T2 sequence (P9WMR3 whole entry): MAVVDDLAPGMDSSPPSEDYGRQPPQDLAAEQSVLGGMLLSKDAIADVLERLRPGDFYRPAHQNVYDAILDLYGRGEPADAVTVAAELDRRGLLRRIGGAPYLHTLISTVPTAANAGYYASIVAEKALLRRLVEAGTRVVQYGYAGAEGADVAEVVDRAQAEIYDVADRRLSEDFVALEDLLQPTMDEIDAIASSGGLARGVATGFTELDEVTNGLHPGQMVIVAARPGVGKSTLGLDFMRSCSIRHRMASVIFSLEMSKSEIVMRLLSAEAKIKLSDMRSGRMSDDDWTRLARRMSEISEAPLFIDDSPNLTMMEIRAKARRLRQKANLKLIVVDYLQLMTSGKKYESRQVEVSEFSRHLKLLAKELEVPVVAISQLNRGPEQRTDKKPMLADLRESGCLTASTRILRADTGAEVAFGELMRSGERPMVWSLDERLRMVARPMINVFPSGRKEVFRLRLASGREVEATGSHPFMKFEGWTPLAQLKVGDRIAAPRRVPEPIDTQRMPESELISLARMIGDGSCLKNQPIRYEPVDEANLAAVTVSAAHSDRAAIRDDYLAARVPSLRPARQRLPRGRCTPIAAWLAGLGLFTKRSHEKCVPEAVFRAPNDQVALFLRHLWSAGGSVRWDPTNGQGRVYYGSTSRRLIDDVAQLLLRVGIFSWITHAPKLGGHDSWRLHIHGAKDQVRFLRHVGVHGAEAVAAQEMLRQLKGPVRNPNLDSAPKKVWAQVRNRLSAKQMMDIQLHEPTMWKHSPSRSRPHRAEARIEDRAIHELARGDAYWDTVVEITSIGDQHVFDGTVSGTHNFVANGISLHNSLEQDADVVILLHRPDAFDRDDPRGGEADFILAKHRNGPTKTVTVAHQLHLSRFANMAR

[12] = target: Heat shock protein HSP 90-alpha (Homo sapiens, UniProt P07900); assay type: functional, organism-based
[13] = target: T3, Protein RecA (Mycobacterium tuberculosis, UniProt P9WHJ3); assay: Fluorescence Cell-Free Homogeneous Dose Retest to Identify Inhibitors of RecA-Intein Splicing Activity. [Related pubchem assays (depositor defined):AID2097, AID2223, AID489010, AID492950]; assay type: functional
T3 sequence (P9WHJ3 whole entry): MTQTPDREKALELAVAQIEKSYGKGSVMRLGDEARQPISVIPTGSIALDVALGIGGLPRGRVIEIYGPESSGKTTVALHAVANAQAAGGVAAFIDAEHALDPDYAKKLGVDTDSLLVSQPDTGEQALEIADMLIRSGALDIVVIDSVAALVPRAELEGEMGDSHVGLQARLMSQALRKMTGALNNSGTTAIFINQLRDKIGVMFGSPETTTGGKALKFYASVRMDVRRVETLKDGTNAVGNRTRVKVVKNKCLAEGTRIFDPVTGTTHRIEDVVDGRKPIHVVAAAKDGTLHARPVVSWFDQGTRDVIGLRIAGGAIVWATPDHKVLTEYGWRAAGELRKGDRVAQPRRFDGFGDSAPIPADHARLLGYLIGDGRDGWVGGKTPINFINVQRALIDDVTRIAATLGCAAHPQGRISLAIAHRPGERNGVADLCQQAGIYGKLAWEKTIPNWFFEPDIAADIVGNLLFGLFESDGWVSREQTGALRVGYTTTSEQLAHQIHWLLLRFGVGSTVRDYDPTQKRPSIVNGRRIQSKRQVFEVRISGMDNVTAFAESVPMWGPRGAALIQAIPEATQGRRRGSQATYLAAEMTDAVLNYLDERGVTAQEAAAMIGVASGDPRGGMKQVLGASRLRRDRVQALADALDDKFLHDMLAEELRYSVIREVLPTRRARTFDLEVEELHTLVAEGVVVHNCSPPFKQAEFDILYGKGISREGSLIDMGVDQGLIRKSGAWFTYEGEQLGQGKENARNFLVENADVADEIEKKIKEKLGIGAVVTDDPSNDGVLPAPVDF

[14] = target: Beta Lactamase (Pseudomonas aeruginosa, UniProt Q932Y6); assay: beta-lactamase reporter inhibitor potency, dose response, artefact control for TLR9-MyD88 binding inhibitor project, BLA reporter cells, FRET fluorescence (AID 588341); assay type: cell-based;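 further: cell based assay in CHO-K1 cells stably expressing beta-lactamase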
Sequence of Beta Lactamase (Q932Y6 whole entry): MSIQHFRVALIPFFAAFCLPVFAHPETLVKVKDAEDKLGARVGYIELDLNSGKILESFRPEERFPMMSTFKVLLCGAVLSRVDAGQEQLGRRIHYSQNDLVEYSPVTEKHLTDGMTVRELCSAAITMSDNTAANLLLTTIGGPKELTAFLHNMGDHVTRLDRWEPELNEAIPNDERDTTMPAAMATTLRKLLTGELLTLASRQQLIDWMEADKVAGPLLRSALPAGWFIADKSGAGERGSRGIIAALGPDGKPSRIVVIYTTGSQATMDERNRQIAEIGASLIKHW

[15] = tested on: INS1; assay: beta cell apoptosis inhibitors, cytokine rescue, dose response, luminescence, retest (AID 449756); assay type: functional, cell-based; conditions: Rattus norvegicus;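 further: cell death triggered by IL-1 beta plus TNF-alpha plus IFN-gamma mixture; protective hits raise ATP signal compared with cytokine alone wells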
[16] = HEp-2 cell cytotoxicity, dose response, cytotoxicity control for RSV inhibitor project, HTS (AID 2410); assay type: functional; conditions: human respiratory syncytial virus
[17] = target: NS3 (Hepatitis C virus, UniProt A3EZJ3); assay: PubChem AID 2173; design: species or system Hepacivirus hominis
Sequence of NS3 (A3EZJ3 whole entry): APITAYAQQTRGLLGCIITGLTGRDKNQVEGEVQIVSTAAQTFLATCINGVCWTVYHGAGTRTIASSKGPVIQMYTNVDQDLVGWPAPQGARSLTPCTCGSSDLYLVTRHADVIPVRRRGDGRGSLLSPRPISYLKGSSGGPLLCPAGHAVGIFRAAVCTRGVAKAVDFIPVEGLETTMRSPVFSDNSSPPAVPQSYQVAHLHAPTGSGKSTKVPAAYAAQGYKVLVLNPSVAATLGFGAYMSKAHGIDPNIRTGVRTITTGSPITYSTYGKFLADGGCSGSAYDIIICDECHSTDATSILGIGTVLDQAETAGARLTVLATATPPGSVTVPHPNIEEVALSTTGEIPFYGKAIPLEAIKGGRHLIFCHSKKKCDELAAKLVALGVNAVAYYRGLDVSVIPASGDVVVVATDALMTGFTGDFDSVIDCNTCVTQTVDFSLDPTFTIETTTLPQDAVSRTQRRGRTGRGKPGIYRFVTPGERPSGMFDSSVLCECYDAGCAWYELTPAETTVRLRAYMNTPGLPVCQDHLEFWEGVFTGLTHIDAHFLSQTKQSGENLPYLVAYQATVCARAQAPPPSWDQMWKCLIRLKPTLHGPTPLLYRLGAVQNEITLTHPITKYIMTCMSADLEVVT

[18] = target: T4, Calpain-2 catalytic subunit (Sus scrofa, UniProt P43367); assay: pig calpain II inhibitor potency, dose response, biochemical, fluorogenic peptide substrate (AID 1420); assay type: functional
T4 sequence (P43367 whole entry): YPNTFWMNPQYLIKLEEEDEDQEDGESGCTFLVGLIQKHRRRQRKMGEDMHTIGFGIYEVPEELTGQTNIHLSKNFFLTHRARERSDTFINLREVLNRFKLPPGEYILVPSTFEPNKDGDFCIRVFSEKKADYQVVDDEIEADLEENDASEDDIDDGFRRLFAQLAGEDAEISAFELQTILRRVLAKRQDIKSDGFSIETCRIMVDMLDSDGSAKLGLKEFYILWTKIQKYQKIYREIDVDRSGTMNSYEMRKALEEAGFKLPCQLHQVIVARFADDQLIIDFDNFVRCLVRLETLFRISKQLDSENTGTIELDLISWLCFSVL

[19] = inhibitors of Bluetongue virus cytopathic effect, confirmation, arbovirus, BSR cells (AID 1250); assay type: functional;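 further: protection from viral cytopathic effect measured as cell viability by ATP luminescence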

For `O=C(OCn1ncc(Br)c(Br)c1=O)c1ccccc1Cl`, the CC50 [1] was > 1.22 µM (not active), the EC50 [2] was 2.03 µM (active) and the EC50 [3] was 1.88 µM (active). For the same compound, the IC50 [4] was 1.75 µM (active), the IC50 [5] was 15.3 µM (not active) and the CC50 [6] was 5.77 µM (active). The CC50 [7] was 17.8 µM (active), the CC50 [8] was 5.45 µM (active) and the IC50 [9] was 3.24 µM (active). For the same compound, the IC50 [10] was 1.46 µM (active), the AC50 [11] was 2 µM (active) and the AC50 [12] was 8.37 µM (active). For the same compound, the EC50 [13] was 0.472 µM (active), the IC50 [14] was > 49.8 µM (inactive) and the AC50 [15] was 4.76 µM (active).
In the case of `Cc1cccc(NC2=NC(=O)/C(=C/C=C/c3ccco3)S2)c1C`, the CC50 [16] is reported as 12.1 µM (active) and the IC50 [17] is reported as 5.49 µM (active).
In the case of `COc1ccc(C(=O)NCC(C)(C)SCc2c(C)cc(C)cc2C)cc1`, the IC50 [18] is reported as > 50 µM (not active) and the IC50 [19] is reported as 24.1 µM (active).
